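Cells were grown in 96-well plates and exposed to each compound for 48 hours at five concentrations; endpoints were interpolated linearly between bracketing concentrations, or set to the highest concentration if not reached. Abbreviation: GI50, concentration required for 50% inhibition of growth.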 The source made the active and inactive calls. No stated cut-off is given here; in the data, active = GI50 up to about 1.1 µM and inactive = higher.
Key:
Assay in all cases: DTP human tumour cell line panel, 48 h
HCC 2998 = system: HCC 2998
MDA-N = system: MDA-N
M14 = system: M14
SF-539 = system: SF-539
786-0 = system: 786-0
UACC-62 = system: UACC-62
HT-29 = system: HT-29
ACHN = system: ACHN
OVCAR-3 = system: OVCAR-3
SK-MEL-5 = system: SK-MEL-5
SF-268 = system: SF-268
NCI/ADR-RES = system: NCI/ADR-RES
OVCAR-5 = system: OVCAR-5
HCT-116 = system: HCT-116
NCI-H460 = system: NCI-H460
SR = system: SR
LOX IMVI = system: LOX IMVI
A549 = system: A549
IGROV-1 = system: IGROV-1
SNB-75 = system: SNB-75

Measured: GI50

NS(=O)(=O)c1nnc(NC(=O)Nc2ccc(Cl)c(Cl)c2)s1
inactive: HCC 2998 18.7 µM | MDA-N 20.5 µM | M14 16.8 µM | SF-539 19 µM | 786-0 24.3 µM | UACC-62 16.2 µM | HT-29 16.7 µM | ACHN 34.2 µM | OVCAR-3 24.9 µM | SK-MEL-5 16.7 µM | SF-268 24.7 µM | NCI/ADR-RES 21 µM | OVCAR-5 24.5 µM | HCT-116 19.5 µM | NCI-H460 19.1 µM | SR 21.9 µM | LOX IMVI 18.2 µM | A549 31 µM

C/C=C/C=C\C1OC(O)([C@H](CC)C(=O)NC/C=C/C=C(\C)[C@H](OC)C(C)C2OC(\C=C/C=C/C=C(\C)C(=O)c3c(O)ccn(C)c3=O)[C@H](O)[C@@H]2O)C(O)C(O)C1(C)C (stereo not given in full)
inactive: HCC 2998 > 100 µM | IGROV-1 82 µM | MDA-N > 100 µM | SNB-75 > 100 µM | M14 > 100 µM | SF-539 > 100 µM | 786-0 71 µM | UACC-62 96.2 µM | HT-29 55 µM | ACHN > 100 µM | OVCAR-3 > 100 µM | SK-MEL-5 88.1 µM | SF-268 > 100 µM | NCI/ADR-RES > 100 µM | OVCAR-5 > 100 µM | HCT-116 > 100 µM | NCI-H460 > 100 µM | LOX IMVI 69.5 µM | A549 > 100 µM

C[N+](C)(C)/N=C\c1ccc(O)c(O)c1
inactive: HCC 2998 > 100 µM | IGROV-1 > 100 µM | MDA-N > 100 µM | M14 > 100 µM | SF-539 > 100 µM | 786-0 > 100 µM | UACC-62 > 100 µM | HT-29 > 100 µM | ACHN > 100 µM | OVCAR-3 > 100 µM | SK-MEL-5 > 100 µM | SF-268 > 100 µM | NCI/ADR-RES > 100 µM | OVCAR-5 > 100 µM | HCT-116 > 100 µM | NCI-H460 > 100 µM | SR > 100 µM | LOX IMVI > 100 µM | A549 > 100 µM

CC(=O)Nc1ccc(OC2=CCN(C)CC2)cc1
inactive: HCC 2998 > 100 µM | IGROV-1 > 100 µM | MDA-N > 100 µM | SNB-75 > 100 µM | M14 > 100 µM | 786-0 > 100 µM | UACC-62 > 100 µM | HT-29 > 100 µM | ACHN > 100 µM | OVCAR-3 > 100 µM | SK-MEL-5 > 100 µM | SF-268 > 100 µM | NCI/ADR-RES > 100 µM | OVCAR-5 > 100 µM | HCT-116 > 100 µM | NCI-H460 > 100 µM | SR > 100 µM | LOX IMVI > 100 µM | A549 > 100 µM

NC(=O)NC(=O)c1cccc(CNc2ccc(C(=O)N[C@@H](CCC(=O)O)C(=O)O)cc2)n1
inactive: HCC 2998 > 100 µM | IGROV-1 > 100 µM | MDA-N > 100 µM | M14 > 100 µM | SF-539 > 100 µM | 786-0 > 100 µM | UACC-62 4 µM | HT-29 > 100 µM | ACHN > 100 µM | OVCAR-3 > 100 µM | SK-MEL-5 > 100 µM | SF-268 > 100 µM | NCI/ADR-RES > 100 µM | OVCAR-5 > 100 µM | HCT-116 > 100 µM | NCI-H460 > 100 µM | SR > 100 µM | LOX IMVI > 100 µM | A549 > 100 µM

CN1CCc2[nH]nc(-c3n[nH]c4c3CN(C)CC4)c2C1
inactive: HCC 2998 > 100 µM | IGROV-1 > 100 µM | MDA-N > 100 µM | M14 > 100 µM | SF-539 > 100 µM | 786-0 > 100 µM | UACC-62 > 100 µM | HT-29 > 100 µM | ACHN > 100 µM | OVCAR-3 > 100 µM | SK-MEL-5 > 100 µM | SF-268 > 100 µM | NCI/ADR-RES > 100 µM | OVCAR-5 > 100 µM | HCT-116 > 100 µM | NCI-H460 > 100 µM | SR > 100 µM | LOX IMVI > 100 µM | A549 > 100 µM

C=C(C)[C@@H]1CCC2=C(CC[C@]3(C)[C@@H]([C@@H](CCC=C(C)C)C(=O)O)[C@H](O)C[C@@]23C)[C@@]1(C)CCC(=O)O [PORICOIC ACID G]
inactive: IGROV-1 42.6 µM | MDA-N 86.3 µM | SNB-75 60.5 µM | M14 99.8 µM | SF-539 59.3 µM | 786-0 85.9 µM | HT-29 47.4 µM | ACHN 75.2 µM | OVCAR-3 > 100 µM | SK-MEL-5 92.7 µM | SF-268 94.8 µM | NCI/ADR-RES > 100 µM | OVCAR-5 45.4 µM | HCT-116 54.1 µM | NCI-H460 46.8 µM | SR 29.4 µM | LOX IMVI 61.2 µM | A549 42.1 µM

CN(C)/C=[N+]1/[C@@H](Cc2ccccc2)C(=O)O[B-]1(F)c1ccccc1 (stereo not given in full)
inactive: HCC 2998 > 100 µM | IGROV-1 > 100 µM | MDA-N > 100 µM | SNB-75 > 100 µM | M14 > 100 µM | 786-0 > 100 µM | UACC-62 > 100 µM | HT-29 > 100 µM | ACHN > 100 µM | OVCAR-3 > 100 µM | SK-MEL-5 > 100 µM | SF-268 > 100 µM | NCI/ADR-RES > 100 µM | OVCAR-5 > 100 µM | HCT-116 > 100 µM | NCI-H460 > 100 µM | SR > 100 µM | LOX IMVI > 100 µM | A549 > 100 µM

NC(Cc1ccc(S(=O)(=O)O)cc1)C(=O)NC(Cc1ccc(S(=O)(=O)O)cc1)C(=O)NC(Cc1ccc(S(=O)(=O)O)cc1)C(=O)O (stereo not given)
inactive: HCC 2998 > 100 µM | IGROV-1 > 100 µM | MDA-N > 100 µM | SNB-75 > 100 µM | M14 > 100 µM | SF-539 > 100 µM | 786-0 > 100 µM | UACC-62 > 100 µM | HT-29 > 100 µM | ACHN > 100 µM | OVCAR-3 > 100 µM | SK-MEL-5 > 100 µM | SF-268 > 100 µM | NCI/ADR-RES > 100 µM | OVCAR-5 > 100 µM | HCT-116 > 100 µM | NCI-H460 > 100 µM | LOX IMVI > 100 µM | A549 > 100 µM

Cc1cnc2c(c1)C(=O)N(c1ccc(Br)cc1)S2(=O)=O
inactive: HCC 2998 > 100 µM | IGROV-1 56.1 µM | MDA-N > 100 µM | SNB-75 37.3 µM | M14 > 100 µM | SF-539 > 100 µM | 786-0 > 100 µM | UACC-62 > 100 µM | HT-29 > 100 µM | ACHN > 100 µM | OVCAR-3 > 100 µM | SK-MEL-5 > 100 µM | SF-268 78.5 µM | NCI/ADR-RES > 100 µM | OVCAR-5 > 100 µM | HCT-116 > 100 µM | NCI-H460 > 100 µM | LOX IMVI > 100 µM | A549 > 100 µM

C=C(C)C1Cc2c(cc(O)c3c(=O)c4c(oc23)C(O)Oc2cc(OC)c(OC)cc2-4)O1 (stereo not given)
inactive: HCC 2998 > 10 µM | IGROV-1 > 10 µM | MDA-N > 10 µM | M14 > 10 µM | SF-539 > 10 µM | 786-0 > 10 µM | UACC-62 > 10 µM | HT-29 > 10 µM | ACHN > 10 µM | OVCAR-3 > 10 µM | SF-268 > 10 µM | NCI/ADR-RES > 10 µM | OVCAR-5 > 10 µM | HCT-116 > 10 µM | NCI-H460 > 10 µM | SR > 10 µM | A549 > 10 µM

C=CCc1cccc2cc(C(=O)NC3CCCCC3)c(=N)oc12
inactive: HCC 2998 16.3 µM | IGROV-1 > 100 µM | MDA-N 19.1 µM | SNB-75 15.8 µM | M14 18 µM | 786-0 14.5 µM | UACC-62 16.3 µM | HT-29 27.2 µM | ACHN 11.1 µM | OVCAR-3 14.1 µM | SK-MEL-5 14 µM | SF-268 17.7 µM | NCI/ADR-RES 27.4 µM | OVCAR-5 17.9 µM | HCT-116 13.9 µM | NCI-H460 16.1 µM | SR 63.8 µM | LOX IMVI 15.4 µM | A549 32.2 µM

NC(=S)N/N=C(/C(=O)Nc1nc2ccc([N+](=O)[O-])cc2s1)C1C(=O)NC(=S)NC1=O
inactive: HCC 2998 56 µM | MDA-N > 100 µM | M14 > 100 µM | SF-539 49 µM | 786-0 > 100 µM | UACC-62 > 100 µM | HT-29 > 100 µM | ACHN 59.4 µM | OVCAR-3 > 100 µM | SF-268 88.9 µM | NCI/ADR-RES > 100 µM | OVCAR-5 55.3 µM | HCT-116 > 100 µM | NCI-H460 56.1 µM | SR > 100 µM | LOX IMVI > 100 µM | A549 > 100 µM

O=C(C/C(=N/O)c1cc(-c2ccccc2)no1)c1ccccc1
inactive: HCC 2998 > 100 µM | IGROV-1 30 µM | MDA-N > 100 µM | M14 85.3 µM | SF-539 19.3 µM | 786-0 22.1 µM | UACC-62 31 µM | HT-29 > 100 µM | ACHN 45 µM | OVCAR-3 23.2 µM | SK-MEL-5 80.9 µM | SF-268 18.7 µM | NCI/ADR-RES 25.8 µM | OVCAR-5 > 100 µM | HCT-116 20.4 µM | NCI-H460 39.6 µM | SR 13.6 µM | LOX IMVI 36.4 µM | A549 58.6 µM

Source: ChEMBL document CHEMBL1201862, “PubChem BioAssay data set” (2004)
